Our source for the drug sensitivity score values is the supplement of paper PMC10920090.

Common to all, as to conditions: 72 h
Experiment [1] deals with BT-474. The experiment in a line: drug sensitivity score (DSS), cell viability CellTiter-Glo; higher = more sensitive; extreme values may be limits of the assay. The protocol:
(§1)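 Targeted FIMM drug screen of 23 compounds at 5 concentrations over a 10,000-fold range in 384-well plates, 1250 cells/well, 72 h at 37 °C. Read-outs were CellTiter-Glo viability and CellTox Green cytotoxicity, normalised to DMSO and benzethonium chloride controls and summarised as drug sensitivity score (DSS). Cells stably transduced with shScramble or one of two shPPFIA1 constructs (shPPFIA1_1 TRCN0000002969, shPPFIA1_2 TRCN0000342514).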

Experiment [2] has as its system UT-SCC-24A. Described as above. The protocol: as §1
Experiment [3] concerns MDA-MB-231. Kind of experiment: drug sensitivity score (DSS), cytotoxicity CellTox Green; higher = more cytotoxic; extreme values may be limits of the assay.
The subject of experiment [4] is MDA-MB-231. Kind of experiment: drug sensitivity score (DSS), cell viability CellTiter-Glo; higher = more sensitive; extreme values may be limits of the assay. A general note: ATP-based viability assays read luminescence as a measure of living cells.
The test system of experiment [5] is BT-474. The experiment in a line: drug sensitivity score (DSS), cytotoxicity CellTox Green; higher = more cytotoxic; extreme values may be limits of the assay. The protocol: as §1
Experiment [6] relates to UT-SCC-24A. The description is as above. The protocol:
as §1

As to `CN(C)C/C=C/C(=O)Nc1cc2c(Nc3ccc(F)c(Cl)c3)ncnc2cc1O[C@H]1CCOC1` [Afatinib], the drug sensitivity score came to 13.2 DSS in the experiment with BT-474 [1] (shRNA: shPPFIA1_1); 13.3 DSS in the experiment with BT-474 [1] (shRNA: shPPFIA1_2); 16.2 DSS with BT-474 [1] (shRNA: shScramble); 18.5 DSS in the experiment on UT-SCC-24A [2] (shRNA: shPPFIA1_1); 18.1 DSS with UT-SCC-24A [2] (shRNA: shPPFIA1_2); 13.4 DSS in the experiment with UT-SCC-24A [2] (shRNA: shScramble). The drug sensitivity score with MDA-MB-231 [3] (shRNA: shPPFIA1_1) came to 0 DSS; in the experiment on MDA-MB-231 [3] (shRNA: shScramble), 0 DSS; in the experiment on MDA-MB-231 [4] (shRNA: shPPFIA1_1), 0.2 DSS; in the experiment on MDA-MB-231 [4] (shRNA: shScramble) it was 1.4 DSS; in the experiment on BT-474 [5] (shRNA: shPPFIA1_1), 7.4 DSS; in the experiment with BT-474 [5] (shRNA: shPPFIA1_2), 8.7 DSS. The drug sensitivity score in the experiment with BT-474 [5] (shRNA: shScramble) was found to be 7.9 DSS; in the experiment on UT-SCC-24A [6] (shRNA: shPPFIA1_1) it was 20.4 DSS; in the experiment on UT-SCC-24A [6] (shRNA: shPPFIA1_2), 19.8 DSS; with UT-SCC-24A [6] (shRNA: shScramble), 12 DSS.
For the compound `O=C(NOCCO)c1ccc2cncn2c1Nc1ccc(I)cc1F` [GDC-0623], the drug sensitivity score was found to be 0 DSS in the experiment on BT-474 [1] (shRNA: shPPFIA1_1); 0 DSS in the experiment on BT-474 [1] (shRNA: shPPFIA1_2); 0 DSS in the experiment on BT-474 [1] (shRNA: shScramble); 2 DSS with UT-SCC-24A [2] (shRNA: shPPFIA1_1); 0 DSS in the experiment with UT-SCC-24A [2] (shRNA: shPPFIA1_2); 1.8 DSS in the experiment on UT-SCC-24A [2] (shRNA: shScramble). For the same compound, the drug sensitivity score stood at 5.2 DSS with MDA-MB-231 [3] (shRNA: shPPFIA1_1); 11.2 DSS with MDA-MB-231 [3] (shRNA: shScramble); 3.7 DSS with MDA-MB-231 [4] (shRNA: shPPFIA1_1); 18.1 DSS with MDA-MB-231 [4] (shRNA: shScramble); 0 DSS in the experiment on BT-474 [5] (shRNA: shPPFIA1_1); 0 DSS in the experiment with BT-474 [5] (shRNA: shPPFIA1_2). The drug sensitivity score stood at 0 DSS in the experiment with BT-474 [5] (shRNA: shScramble), 1.8 DSS in the experiment on UT-SCC-24A [6] (shRNA: shPPFIA1_1), 0 DSS in the experiment on UT-SCC-24A [6] (shRNA: shPPFIA1_2) and 0.8 DSS with UT-SCC-24A [6] (shRNA: shScramble).
Regarding `COc1cc(C(=O)NC2CCN(C)CC2)c(F)cc1Nc1ncc2c(n1)N(C1CCCC1)CC(F)(F)C(=O)N2C` [TAK-960], the drug sensitivity score in the experiment on BT-474 [1] (shRNA: shPPFIA1_1), in the experiment with BT-474 [1] (shRNA: shPPFIA1_2), in the experiment with BT-474 [1] (shRNA: shScramble), in the experiment on UT-SCC-24A [2] (shRNA: shPPFIA1_1), with UT-SCC-24A [2] (shRNA: shPPFIA1_2) and with UT-SCC-24A [2] (shRNA: shScramble) was 0 DSS each time. Besides, the drug sensitivity score with MDA-MB-231 [3] (shRNA: shPPFIA1_1) amounted to 0 DSS; in the experiment on MDA-MB-231 [3] (shRNA: shScramble), 0.9 DSS; in the experiment with MDA-MB-231 [4] (shRNA: shPPFIA1_1), 4.9 DSS; with MDA-MB-231 [4] (shRNA: shScramble), 20.6 DSS; with BT-474 [5] (shRNA: shPPFIA1_1), 0 DSS; with BT-474 [5] (shRNA: shPPFIA1_2), 0 DSS. In addition, the drug sensitivity score with BT-474 [5] (shRNA: shScramble), in the experiment on UT-SCC-24A [6] (shRNA: shPPFIA1_1), in the experiment with UT-SCC-24A [6] (shRNA: shPPFIA1_2) and in the experiment with UT-SCC-24A [6] (shRNA: shScramble) was 0 DSS throughout.
For the compound `CC(=O)Nc1cccc(-n2c(=O)n(C3CC3)c(=O)c3c(Nc4ccc(I)cc4F)n(C)c(=O)c(C)c32)c1` [Trametinib], the drug sensitivity score with BT-474 [1] (shRNA: shPPFIA1_1) was 0 DSS; in the experiment with BT-474 [1] (shRNA: shPPFIA1_2) it was 0 DSS; in the experiment on BT-474 [1] (shRNA: shScramble) it was 0.1 DSS; in the experiment on UT-SCC-24A [2] (shRNA: shPPFIA1_1), 19.6 DSS; in the experiment with UT-SCC-24A [2] (shRNA: shPPFIA1_2), 18.5 DSS; in the experiment on UT-SCC-24A [2] (shRNA: shScramble) it was 15.4 DSS. In addition, the drug sensitivity score in the experiment with MDA-MB-231 [3] (shRNA: shPPFIA1_1) was found to be 5.3 DSS; with MDA-MB-231 [3] (shRNA: shScramble) it was 12.5 DSS; with MDA-MB-231 [4] (shRNA: shPPFIA1_1), 0.7 DSS; in the experiment on MDA-MB-231 [4] (shRNA: shScramble) it was 12.4 DSS; in the experiment on BT-474 [5] (shRNA: shPPFIA1_1), 0 DSS; with BT-474 [5] (shRNA: shPPFIA1_2), 0 DSS. Moreover, the drug sensitivity score worked out at 0 DSS in the experiment with BT-474 [5] (shRNA: shScramble), 18.9 DSS in the experiment on UT-SCC-24A [6] (shRNA: shPPFIA1_1), 18.4 DSS in the experiment on UT-SCC-24A [6] (shRNA: shPPFIA1_2) and 7.8 DSS in the experiment on UT-SCC-24A [6] (shRNA: shScramble).
As for `CN[C@@H](C)C(=O)N[C@H](C(=O)N1CCC[C@H]1c1nc(C(=O)c2ccc(F)cc2)cs1)C1CCCCC1` [NVP-LCL161], the drug sensitivity score was determined as 1 DSS in the experiment with BT-474 [1] (shRNA: shPPFIA1_1); 1.4 DSS in the experiment on BT-474 [1] (shRNA: shPPFIA1_2); 0.7 DSS in the experiment with BT-474 [1] (shRNA: shScramble); 4.5 DSS in the experiment on UT-SCC-24A [2] (shRNA: shPPFIA1_1); 5.7 DSS with UT-SCC-24A [2] (shRNA: shPPFIA1_2); 4.2 DSS in the experiment on UT-SCC-24A [2] (shRNA: shScramble). For the same compound, the drug sensitivity score is 2.4 DSS in the experiment on BT-474 [5] (shRNA: shPPFIA1_1); 3.3 DSS with BT-474 [5] (shRNA: shPPFIA1_2); 1.3 DSS in the experiment with BT-474 [5] (shRNA: shScramble); 10.2 DSS in the experiment with UT-SCC-24A [6] (shRNA: shPPFIA1_1); 12.8 DSS in the experiment with UT-SCC-24A [6] (shRNA: shPPFIA1_2); 8.1 DSS in the experiment on UT-SCC-24A [6] (shRNA: shScramble).
